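Five compound concentrations were applied to cells in 96-well plates for 48 hours; endpoints were derived by simple linear interpolation of the resulting dose-response curve. The concentration for 50% growth inhibition is given as GI50. The concentration for full growth arrest is given as TGI.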
Key:
Test in all cases: NCI tumour cell line growth inhibition, 48 h
[1] = tested on: CAKI-1 renal
[2] = tested on: UO-31 renal
[3] = tested on: HOP-92 NSCLC
[4] = tested on: K-562 leukemia
[5] = tested on: SK-MEL-5 melanoma
[6] = tested on: A549 NSCLC
[7] = tested on: MALME-3M melanoma
[8] = tested on: HOP-62 NSCLC
[9] = tested on: NCI-H23 lung
[10] = tested on: UACC-62 melanoma
[11] = tested on: HL-60(TB) leukemia
[12] = tested on: HCC-2998 colon
[13] = tested on: KM12 colon
[14] = tested on: EKVX NSCLC
[15] = tested on: SK-OV-3 ovarian
[16] = tested on: IGROV1 ovarian
[17] = tested on: OVCAR-5 ovarian
[18] = tested on: NCI/ADR-RES ovarian
[19] = tested on: SK-MEL-2 melanoma
[20] = tested on: MDA-MB-231 breast
[21] = tested on: OVCAR-3 ovarian
[22] = tested on: HCT-15 colon
[23] = tested on: COLO 205 colon
[24] = tested on: OVCAR-4 ovarian
[25] = tested on: LOX IMVI melanoma
[26] = tested on: PC-3 prostate
[27] = tested on: NCI-H460 lung
[28] = tested on: MDA-MB-435
[29] = tested on: SR leukemia
[30] = tested on: ACHN renal
[31] = tested on: DU-145 prostate
[32] = tested on: SK-MEL-28 melanoma
[33] = tested on: A498 renal
[34] = tested on: OVCAR-8 ovarian
[35] = tested on: TK-10 renal
[36] = tested on: SF-295 CNS
[37] = tested on: SN12C renal
[38] = tested on: SNB-75 CNS
[39] = tested on: BT-549 breast
[40] = tested on: RPMI-8226 leukemia
[41] = tested on: HCT-116 colon
[42] = tested on: T-47D breast
[43] = tested on: SF-268 CNS
[44] = tested on: U251 CNS
[45] = tested on: NCI-H226 lung
[46] = tested on: M14 melanoma
[47] = tested on: NCI-H522 lung
[48] = tested on: RXF 393 renal
[49] = tested on: UACC-257 melanoma
[50] = tested on: CCRF-CEM leukemia
[51] = tested on: MCF7 breast
[52] = tested on: HS 578T breast
[53] = tested on: HT29 colon
[54] = tested on: SF-539 CNS
[55] = tested on: SW-620 colon
[56] = tested on: SNB-19 CNS
[57] = tested on: 786-0 renal
[58] = tested on: MOLT-4 leukemia

Cc1cccc2c(N)c3cccc(C(=O)NCCN(C)C)c3nc12
TGI [1]: 1.08 µM
TGI [2]: 0.81 µM
TGI [3]: 2940 nM
TGI [4]: 543 nM
TGI [5]: 0.269 µM
TGI [6]: 3.5 µM
TGI [7]: 0.606 µM
TGI [8]: 0.459 µM
TGI [9]: 1.16 µM
TGI [10]: 0.227 µM
TGI [11]: 42.7 nM
TGI [12]: 0.218 µM
TGI [13]: 0.856 µM
TGI [14]: 0.469 µM
TGI [15]: 14.5 µM
TGI [16]: 0.508 µM
TGI [17]: 0.723 µM
TGI [18]: 4.74 µM
TGI [19]: 0.463 µM
TGI [20]: 0.275 µM
TGI [21]: 0.929 µM
TGI [22]: 4.29 µM
TGI [23]: 229 nM
TGI [24]: 18 µM
TGI [25]: 0.158 µM
TGI [26]: 0.357 µM
TGI [27]: 0.0262 µM
TGI [28]: 0.321 µM
TGI [29]: 0.0347 µM
TGI [30]: 6.75 µM
TGI [31]: 0.639 µM
TGI [32]: 0.482 µM
TGI [33]: 516 nM
TGI [34]: 2.01 µM
TGI [35]: > 30 µM
TGI [36]: 0.615 µM
TGI [37]: 0.457 µM
TGI [38]: 0.615 µM
TGI [39]: 4.16 µM
TGI [40]: 0.128 µM
TGI [41]: 2.38 µM
TGI [42]: 0.513 µM
TGI [43]: 2.41 µM
TGI [44]: 0.604 µM
TGI [45]: 1.48 µM
TGI [46]: 0.422 µM
TGI [47]: 0.0737 µM
TGI [48]: 0.479 µM
TGI [49]: 0.658 µM
TGI [50]: 0.0324 µM

Cc1ccc(/C(=C/C=C(C#N)C#N)Sc2cc(Cl)ccc2Cl)cc1
TGI [1]: 19.9 µM
TGI [2]: > 100 µM
TGI [5]: 26.4 µM
TGI [51]: > 100 µM
TGI [6]: > 100 µM
TGI [7]: 35.5 µM
TGI [8]: > 100 µM
TGI [9]: 16.1 µM
TGI [10]: 15.3 µM
TGI [13]: 28 µM
TGI [14]: 46.6 µM
TGI [15]: 27.8 µM
TGI [52]: 9.23 µM
TGI [16]: 32.6 µM
TGI [17]: 19.4 µM
TGI [18]: 7.58 µM
TGI [19]: > 100 µM
TGI [53]: > 100 µM
TGI [20]: 13 µM
TGI [21]: 11.8 µM
TGI [54]: 12.4 µM
TGI [22]: 12.5 µM
TGI [23]: 20400 nM
TGI [24]: 37.7 µM
TGI [25]: 3.33 µM
TGI [55]: 22.5 µM
TGI [27]: > 100 µM
TGI [56]: 22.3 µM
TGI [28]: 7.46 µM
TGI [30]: 10 µM
TGI [31]: 13.9 µM
TGI [32]: 28.9 µM
TGI [35]: 18.7 µM
TGI [36]: 16 µM
TGI [37]: 13.9 µM
TGI [38]: 38.7 µM
TGI [41]: 5.06 µM
TGI [42]: 67.5 µM
TGI [43]: 43.9 µM
TGI [44]: 15 µM
TGI [45]: 13.6 µM
TGI [57]: 5.01 µM
TGI [46]: 16.4 µM
TGI [47]: 22.1 µM
TGI [48]: 27.8 µM
TGI [49]: 7.8 µM

CC1(C)C[C@H]2C=C(C=O)[C@]34C[C@]3(C(=O)OC4O)[C@H]2C1 (stereo partly specified)
TGI [1]: 5.04 µM
TGI [2]: 6.92 µM
TGI [4]: > 100000 nM
TGI [5]: 9.32 µM
TGI [51]: 5.54 µM
TGI [6]: 13.1 µM
TGI [8]: 45.1 µM
TGI [12]: 12.3 µM
TGI [13]: 5.6 µM
TGI [14]: 4.34 µM
TGI [15]: 50.3 µM
TGI [52]: > 100 µM
TGI [16]: 9.75 µM
TGI [17]: 5.14 µM
TGI [53]: 4.96 µM
TGI [20]: 6.47 µM
TGI [21]: 8.47 µM
TGI [22]: 4.7 µM
TGI [23]: 1440 nM
TGI [24]: 7.86 µM
TGI [55]: > 100 µM
TGI [26]: 8.74 µM
TGI [27]: 53.4 µM
TGI [56]: > 100 µM
TGI [29]: > 100 µM
TGI [30]: 8.07 µM
TGI [31]: 16.5 µM
TGI [32]: 9.4 µM
TGI [34]: 3.67 µM
TGI [35]: 4.53 µM
TGI [36]: 23.9 µM
TGI [37]: > 100 µM
TGI [38]: 6.87 µM
TGI [58]: > 100 µM
TGI [39]: 4.56 µM
TGI [40]: > 100 µM
TGI [42]: 4.63 µM
TGI [44]: 51.7 µM
TGI [45]: 26.9 µM
TGI [50]: > 100 µM

COc1ccc(C(C2C(=O)N(C)C(=O)N(C)C2=O)C(F)(F)C(=O)N(C)C)cc1 (stereo unspecified)
TGI [1]: > 100 µM
TGI [2]: > 100 µM
TGI [3]: > 100000 nM
TGI [5]: > 100 µM
TGI [51]: > 100 µM
TGI [6]: > 100 µM
TGI [7]: > 100 µM
TGI [8]: > 100 µM
TGI [9]: > 100 µM
TGI [10]: > 100 µM
TGI [12]: > 100 µM
TGI [13]: > 100 µM
TGI [14]: > 100 µM
TGI [15]: > 100 µM
TGI [17]: > 100 µM
TGI [18]: > 100 µM
TGI [19]: > 100 µM
TGI [20]: > 100 µM
TGI [21]: > 100 µM
TGI [54]: > 100 µM
TGI [22]: > 100 µM
TGI [23]: > 100000 nM
TGI [24]: > 100 µM
TGI [25]: > 100 µM
TGI [55]: > 100 µM
TGI [26]: > 100 µM
TGI [27]: > 100 µM
TGI [56]: > 100 µM
TGI [28]: > 100 µM
TGI [30]: > 100 µM
TGI [31]: > 100 µM
TGI [32]: > 100 µM
TGI [33]: > 100000 nM
TGI [34]: > 100 µM
TGI [35]: > 100 µM
TGI [36]: > 100 µM
TGI [38]: > 100 µM
TGI [39]: > 100 µM
TGI [40]: > 100 µM
TGI [41]: > 100 µM
TGI [42]: > 100 µM
TGI [43]: > 100 µM
TGI [44]: > 100 µM
TGI [45]: > 100 µM
TGI [57]: > 100 µM
TGI [46]: > 100 µM
TGI [48]: > 100 µM
TGI [49]: > 100 µM
TGI [50]: > 100 µM

CCOC(=O)c1cc(C(=O)c2cc(OC)cc(OC)c2)n2ncc3ccccc3c12
GI50 [5]: 623 nM
TGI [5]: > 100 µM
GI50 [51]: 410 nM
TGI [51]: > 100 µM
GI50 [10]: 692 nM
TGI [10]: > 100 µM
GI50 [11]: 820 nM
TGI [11]: > 100000 nM
GI50 [52]: 1840 nM
TGI [52]: > 100 µM
GI50 [18]: 476 nM
TGI [18]: > 100 µM
GI50 [22]: 484 nM
TGI [22]: > 100 µM
GI50 [26]: 839 nM
TGI [26]: > 100 µM
GI50 [56]: 1570 nM
TGI [56]: > 100 µM
GI50 [29]: 442 nM
TGI [29]: > 100 µM
GI50 [36]: 483 nM
TGI [36]: > 100 µM
GI50 [39]: 1180 nM
TGI [39]: > 100 µM
GI50 [43]: 1590 nM
TGI [43]: > 100 µM
GI50 [46]: 485 nM
TGI [46]: > 100 µM
GI50 [49]: > 100 µM
TGI [49]: > 100 µM

COc1cc2nc(N3CCN(C(=O)c4ccco4)CC3)nc(N)c2cc1OC
TGI [9]: 27.1 µM
